Test results taken from US20130288989A1, “NEW USE OF CHEMICAL INGREDIENTS IN CYNOMORIUM AS PHYTOESTROGEN” (TIANJIN UNIVERSITY OF TRADITIONAL CHINESE MEDICINE, priority 2010, published 2013).
“Also recorded” adds a separate entry of the source.

Tests used:
Assay type in all cases: cell-based
ERα = molecular target: T1, ERα (Homo sapiens, UniProt P03372); assay: ERα luciferase reporter gene transcription activation in transfected Hela cells; settings: for ERα (% of the control) mean ± S.D. / ERα (% of estradiol): Hela cells; for ERα (% of the control) mean ± S.D.: 24 h; for ERα (% of estradiol): estradiol at 10^−8M; for concentration at which the transcriptional activity of ERα is agonized: luciferase reporter gene
T1 construct: expressed in transfected cells; host or cells: Hela cells (ER expression free)
T1 sequence (P03372 1-595): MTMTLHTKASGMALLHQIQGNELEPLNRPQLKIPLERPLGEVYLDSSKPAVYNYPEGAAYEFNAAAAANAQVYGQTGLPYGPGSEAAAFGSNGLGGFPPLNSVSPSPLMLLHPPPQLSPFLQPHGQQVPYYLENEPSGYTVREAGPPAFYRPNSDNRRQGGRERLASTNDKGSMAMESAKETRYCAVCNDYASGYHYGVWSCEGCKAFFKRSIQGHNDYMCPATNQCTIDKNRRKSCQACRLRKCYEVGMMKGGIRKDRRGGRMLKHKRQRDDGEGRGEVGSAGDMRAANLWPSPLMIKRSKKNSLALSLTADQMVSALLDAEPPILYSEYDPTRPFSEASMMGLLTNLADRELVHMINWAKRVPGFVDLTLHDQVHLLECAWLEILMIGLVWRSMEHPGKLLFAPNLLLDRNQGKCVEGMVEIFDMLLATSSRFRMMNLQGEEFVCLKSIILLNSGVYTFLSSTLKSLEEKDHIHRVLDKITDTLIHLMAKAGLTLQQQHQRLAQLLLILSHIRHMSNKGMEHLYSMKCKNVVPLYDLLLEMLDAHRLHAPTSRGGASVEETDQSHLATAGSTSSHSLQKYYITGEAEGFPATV
From the text: (§1) Actually, estrogens show their biological activity by regulating estrogen responding genetic transcription.
(§2) Formulation of sample solutions of catechin, (−)epicatechin-3-O-gallate, naringenin-4′-O-glucoside, phlorizin, emodin, chrysophanol (separately obtained from Example 1):
(§3) Catechin, (−)epicatechin-3-O-gallate, naringenin-4′-O-glucoside, phlorizin, emodin, chrysophanol in corresponding weights were separately weighed precisely, than added with DMSO for dissolution, the corresponding sample solution high dose groups (10 μM or 1 μM), were diluted in certain times to separately obtain low dose groups (1 μM to 0.001 μM).
(§4) Under condition of 37° C. and 5% CO2, Hela cells were cultured in phenol red-free high sugar DMEM culture medium containing 10% calf serum in incubator, the cells were spread in 60% density on 96-well plate when cell density was about 90%, each well was added with 150 ul of phenol red-free DMEM culture medium containing 10% serum, cultivation was performed overnight. To each well of the 96-well plate, 100 ul of serum-free DMEM culture medium and 0.4 μg plasmid (ptk-ERE-luc 2 μg, tk-Renila 1 μg, ERα or ERβ 1 μg) were used for transfection. After 6 h of transfection, each well was added with 150 ul of serum-free phenol red-free DMEM culture medium. Three wells were selected form each group, added with 10^−8M estradiol E2, and substance to be tested in different concentrations, 15 ul/well (sample 4-5 concentration gradient groups), continuously cultured under condition of 37° C., 5% CO2 for 24 h. After 24 h, each well was added with 80 μl of cell disruption solution, and the cells were subjected to freeze thawing once to be sufficiently disrupted. As for the cell lysis solution of each well, its activities to firefly luciferase and Renila luciferase were separately measured.

ERβ = molecular target: T2, ERβ (Homo sapiens, UniProt Q92731); assay: ERβ luciferase reporter gene transcription activation in transfected Hela cells; settings: for ERβ (% of the control) mean ± S.D. / ERβ (% of estradiol): Hela cells; for ERβ (% of the control) mean ± S.D.: 24 h; for ERβ (% of estradiol): estradiol at 10^−8M; for concentration at which the transcriptional activity of ERβ is agonized: luciferase reporter gene
T2 construct: expressed in transfected cells; host or cells: Hela cells (ER expression free)
From the text: as §1, §2, §3, §4

estrogen receptor = assay: Estrogen receptor activation test: overall estrogen activity and ERβ versus ERα comparison; settings: for ERβ/ERα (both % of estradiol at 10^−8M): Hela cells; for estrogen activity / estrogen receptor activation (in words): estradiol as positive control
Method: as §1, §4

T2 sequence (Q92731 whole entry): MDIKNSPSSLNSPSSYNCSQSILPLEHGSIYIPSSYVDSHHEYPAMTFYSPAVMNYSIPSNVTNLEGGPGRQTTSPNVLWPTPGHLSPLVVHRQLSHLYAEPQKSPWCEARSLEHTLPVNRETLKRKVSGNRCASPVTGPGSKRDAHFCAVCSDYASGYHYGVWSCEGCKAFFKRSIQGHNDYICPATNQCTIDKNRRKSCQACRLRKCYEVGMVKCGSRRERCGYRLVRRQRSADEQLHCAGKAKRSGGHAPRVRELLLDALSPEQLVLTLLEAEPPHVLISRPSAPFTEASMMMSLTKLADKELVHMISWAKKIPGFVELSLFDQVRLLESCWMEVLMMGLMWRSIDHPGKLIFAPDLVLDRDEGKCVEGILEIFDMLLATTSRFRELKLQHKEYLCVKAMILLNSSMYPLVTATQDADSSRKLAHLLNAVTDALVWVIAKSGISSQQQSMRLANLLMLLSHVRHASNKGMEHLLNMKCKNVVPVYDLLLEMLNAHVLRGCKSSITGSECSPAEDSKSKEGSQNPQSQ

Row | Molecule | ERα (% of the control) mean ± S.D. (ERα; 10^−5 M) | ERα (% of the control) mean ± S.D. (ERα; 10^−6 M) | ERα (% of estradiol) (ERα; 10^−6 M) | ERα (% of the control) mean ± S.D. (ERα; 10^−7 M) | ERα (% of estradiol) (ERα; 10^−7 M) | ERα (% of the control) mean ± S.D. (ERα; 10^−8 M) | ERα (% of estradiol) (ERα; 10^−8 M) | concentration at which the transcriptional activity of ERα is agonized (ERα) | ERβ (% of the control) mean ± S.D. (ERβ; 10^−6 M) | ERβ (% of estradiol) (ERβ; 10^−6 M) | ERβ (% of the control) mean ± S.D. (ERβ; 10^−7 M) | ERβ (% of estradiol) (ERβ; 10^−7 M) | ERβ (% of the control) mean ± S.D. (ERβ; 10^−8 M) | ERβ (% of estradiol) (ERβ; 10^−8 M) | concentration at which the transcriptional activity of ERβ is agonized (ERβ) | ERβ/ERα (both % of estradiol at 10^−8M) (estrogen receptor; sample 10^−6 M) | ERβ/ERα (both % of estradiol at 10^−8M) (estrogen receptor; sample 10^−7 M) | ERβ/ERα (both % of estradiol at 10^−8M) (estrogen receptor; sample 10^−8 M) | estrogen activity / estrogen receptor activation (in words) (estrogen receptor) | selectivity to receptor subtypes (ERα vs ERβ) (estrogen receptor; result in words) | other results
1 | catechin | 128.00 ± 8.74 % of the control | 108.85 ± 8.87 % of the control | (51.22) % of estradiol | 106.72 ± 12.84 % of the control | (50.22) % of estradiol | 102.89 ± 10.21 % of the control | (48.42) % of estradiol | 10^−5 M | 103.71 ± 9.07 % of the control | (53.71) % of estradiol | 102.57 ± 1.04 % of the control | (53.12) % of estradiol | 101.93 ± 2.27 % of the control | (52.79) % of estradiol | 10^−5 M | 1.05 | 1.06 | 1.09 | show relevance to estrogen receptor activation; also recorded: potent activity of estrogen | no significant selectivity to receptor subtypes | ERα (% of estradiol) (ERα; 10^−5 M): (60.23) % of estradiol; ERβ (% of the control) mean ± S.D. (ERβ; 10^−5 M): 115.59 ± 13.39 % of the control; ERβ (% of estradiol) (ERβ; 10^−5 M): (59.86) % of estradiol; ERβ/ERα (both % of estradiol at 10^−8M) (estrogen receptor; sample 10^−5 M): 1.28
2 | Cc1cc(O)c2c(c1)C(=O)c1cc(O)cc(O)c1C2=O [Emodin, emodin] | – | 146.40 ± 18.07 % of the control | (64.01) % of estradiol | 109.96 ± 11.33 % of the control | (48.07) % of estradiol | 108.48 ± 27.45 % of the control | (47.43) % of estradiol | 10^−6 M | 145.21 ± 8.06 % of the control | (65.63) % of estradiol | 106.60 ± 10.76 % of the control | (48.18) % of estradiol | 104.92 ± 9.08 % of the control | (47.42) % of estradiol | 10^−6 M | 1.03 | 1.00 | 1.00 | show relevance to estrogen receptor activation | no receptor selectivity | ERα (% of the control) mean ± S.D. (ERα; 10^−9 M): 101.27 ± 15.90 % of the control; ERα (% of estradiol) (ERα; 10^−9 M): (44.27) % of estradiol; ERβ (% of the control) mean ± S.D. (ERβ; 10^−9 M): 104.68 ± 13.96 % of the control; ERβ (% of estradiol) (ERβ; 10^−9 M): 47.31 % of estradiol; ERβ/ERα (both % of estradiol at 10^−8M) (estrogen receptor; sample 10^−9 M): 1.07
3 | O=C1C[C@@H](c2ccc(O[C@@H]3O[C@H](CO)[C@@H](O)[C@H](O)[C@H]3O)cc2)Oc2cc(O)cc(O)c21 [Naringenin-4′-O-glucoside, naringenin-4′-O-glucoside] | 188.07 ± 18.61 % of the control | 198.72 ± 3.99 % of the control | (97.08) % of estradiol | 182.34 ± 5.97 % of the control | (89.08) % of estradiol | 157.62 ± 14.54 % of the control | (77.00) % of estradiol | 10^−9-10^−5 M | 207.11 ± 15.76 % of the control | (104.30) % of estradiol | 200.66 ± 5.22 % of the control | (101.06) % of estradiol | 180.98 ± 10.46 % of the control | (91.14) % of estradiol | 10^−9-10^−5 M | 1.07 | 1.13 | 1.18 | show relevance to estrogen receptor activation | a higher selectivity to ERβ than ERα | ERα (% of estradiol) (ERα; 10^−5 M): (91.88) % of estradiol; ERα (% of the control) mean ± S.D. (ERα; 10^−9 M): 110.04 ± 5.59 % of the control; ERα (% of estradiol) (ERα; 10^−9 M): (53.76) % of estradiol; ERβ (% of the control) mean ± S.D. (ERβ; 10^−5 M): 215.85 ± 22.32 % of the control; ERβ (% of estradiol) (ERβ; 10^−5 M): (108.71) % of estradiol; ERβ (% of the control) mean ± S.D. (ERβ; 10^−9 M): 137.90 ± 9.40 % of the control; ERβ (% of estradiol) (ERβ; 10^−9 M): (69.45) % of estradiol; ERβ/ERα (both % of estradiol at 10^−8M) (estrogen receptor; sample 10^−5 M): 1.18; ERβ/ERα (both % of estradiol at 10^−8M) (estrogen receptor; sample 10^−9 M): 1.29; estrogen activity / estrogen receptor activation (in words) (estrogen receptor; listed as naringenin-4′-β-glucoside): potent activity of estrogen; dose dependence of agonism of ERα and ERβ transcriptional activity (estrogen receptor; result in words): in a dose dependent manner
4 | O=C(CCc1ccc(O)cc1)c1c(O)cc(O)cc1O[C@@H]1O[C@H](CO)[C@@H](O)[C@H](O)[C@H]1O [Phlorizin, phlorizin] | 137.71 ± 8.44 % of the control | 122.09 ± 11.33 % of the control | (64.17) % of estradiol | 118.40 ± 4.20 % of the control | (62.23) % of estradiol | 105.43 ± 13.57 % of the control | (55.41) % of estradiol | 10^−6-10^−5 M | 133.79 ± 5.45 % of the control | (72.50) % of estradiol | 116.14 ± 8.86 % of the control | (62.93) % of estradiol | 109.38 ± 8.72 % of the control | (59.27) % of estradiol | 10^−6-10^−5 M | 1.13 | 1.01 | 1.07 | show relevance to estrogen receptor activation; also recorded: potent activity of estrogen | no significant selectivity to receptor subtypes | ERα (% of estradiol) (ERα; 10^−5 M): (72.38) % of estradiol; ERβ (% of the control) mean ± S.D. (ERβ; 10^−5 M): 147.95 ± 10.29 % of the control; ERβ (% of estradiol) (ERβ; 10^−5 M): (80.17) % of estradiol; ERβ/ERα (both % of estradiol at 10^−8M) (estrogen receptor; sample 10^−5 M): 1.11
